Assay [1] concerns IL-13. In words: SEB-stimulated cytokine release from human PBMC: IL-13. In kind it is cell-based. The conditions noted are these: SEB 1 ng/ml.
The subject of assay [2] is IL-4. Nature of the assay: SEB-stimulated cytokine release from human PBMC: IL-4. In kind it is cell-based. The conditions noted are these: SEB 1 ng/ml.
The test system of assay [3] is GM-CSF. Nature of the assay: SEB-stimulated cytokine release from human PBMC: GM-CSF. In kind it is cell-based. As to conditions: SEB 1 ng/ml.
Assay [4] relates to IL-6. Nature of the assay: SEB-stimulated cytokine release from human PBMC: IL-6. In kind it is cell-based. The conditions noted are these: SEB 1 ng/ml.
Assay [5] concerns IP-10. In words: SEB-stimulated cytokine release from human PBMC: IP-10. In kind it is cell-based. As to conditions: SEB 1 ng/ml.
The test system of assay [6] is IL-10. In words: SEB-stimulated cytokine release from human PBMC: IL-10. In kind it is cell-based. As to conditions: SEB 1 ng/ml.
For assay [7], the system named is IL-3. In words: SEB-stimulated cytokine release from human PBMC: IL-3. In kind it is cell-based. The conditions noted are these: SEB 1 ng/ml.
Assay [8] relates to IL-1β. Nature of the assay: SEB-stimulated cytokine release from human PBMC: IL-1β. In kind it is cell-based. The conditions noted are these: SEB 1 ng/ml.
In assay [9] the test system is IL-12p40. In words: SEB-stimulated cytokine release from human PBMC: IL-12p40. In kind it is cell-based. The conditions noted are these: SEB 1 ng/ml.
The test system of assay [10] is IL-5. In words: SEB-stimulated cytokine release from human PBMC: IL-5. In kind it is cell-based. As to conditions: SEB 1 ng/ml.
Assay [11] concerns IL-1α. In words: SEB-stimulated cytokine release from human PBMC: IL-1α. In kind it is cell-based. As to conditions: SEB 1 ng/ml.
For assay [12], the system named is MCP-1. Nature of the assay: SEB-stimulated cytokine release from human PBMC: MCP-1. In kind it is cell-based. As to conditions: SEB 1 ng/ml.
The test system of assay [13] is Plaque Psoriasis (PASI score). The conditions noted are these: >90% occupancy of LFA-1; cited from earlier work.

Some results are limits rather than exact numbers.

`O=C(NC(Cc1cc(=O)[nH]c2ccccc12)C(=O)O)c1ccc(Cl)cc1` (stereo not shown) [Rebamipide]: the EC50 in [1], in assay [2], in [3], in assay [4], in assay [5] and in [6] was more than 1000 µM in each case. The EC50 in assay [7], in assay [8], in assay [9], in assay [10], in [11] and in assay [12] was more than 1000 µM throughout.
On to “efalizumab: anti-LFA-1 monoclonal antibody, clinical trial in plaque psoriasis”, for which, in assay [13], the “clinical improvement in PASI score” value is “greater than 50%”.

What is called EC50 is the midpoint of the concentration-response curve. Low values mean greater potency, high ones weaker potency.

Source of the values: patent US20140051722A1, “TOPICAL LFA-1 ANTAGONISTS FOR USE IN LOCALIZED TREATMENT OF IMMUNE RELATED DISORDERS” (SARCODE BIOSCIENCE INC., priority 2008, published 2014).
